In ChEMBL document CHEMBL1139487, “Discovery of corticotropin releasing factor 2 receptor selective sauvagine analogues for treatment of skeletal muscle atrophy” (J Med Chem, 2005):

Legend:
[1] = target: T1, Corticotropin-releasing factor receptor 1 (Mus musculus, UniProt P35347); assay: In vitro effective concentration for mouse corticotropin releasing factor 1 receptor
T1 sequence (P35347 whole entry): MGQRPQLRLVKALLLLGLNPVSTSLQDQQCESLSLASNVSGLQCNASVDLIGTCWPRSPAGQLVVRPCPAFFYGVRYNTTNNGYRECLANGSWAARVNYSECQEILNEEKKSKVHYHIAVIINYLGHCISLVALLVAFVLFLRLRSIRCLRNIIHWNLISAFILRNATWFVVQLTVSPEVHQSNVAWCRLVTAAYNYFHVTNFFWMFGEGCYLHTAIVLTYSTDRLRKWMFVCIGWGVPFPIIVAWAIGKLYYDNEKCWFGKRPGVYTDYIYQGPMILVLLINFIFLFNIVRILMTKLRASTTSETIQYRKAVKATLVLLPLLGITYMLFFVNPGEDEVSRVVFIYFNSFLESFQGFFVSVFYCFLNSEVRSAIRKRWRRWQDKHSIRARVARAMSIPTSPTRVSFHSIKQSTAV

[2] = target: Corticotropin-releasing factor receptor 2 (Mus musculus, UniProt Q60748); assay: In vitro effective concentration for mouse corticotropin releasing factor 2 receptor
Corticotropin-releasing factor receptor 2, sequence (Q60748 whole entry): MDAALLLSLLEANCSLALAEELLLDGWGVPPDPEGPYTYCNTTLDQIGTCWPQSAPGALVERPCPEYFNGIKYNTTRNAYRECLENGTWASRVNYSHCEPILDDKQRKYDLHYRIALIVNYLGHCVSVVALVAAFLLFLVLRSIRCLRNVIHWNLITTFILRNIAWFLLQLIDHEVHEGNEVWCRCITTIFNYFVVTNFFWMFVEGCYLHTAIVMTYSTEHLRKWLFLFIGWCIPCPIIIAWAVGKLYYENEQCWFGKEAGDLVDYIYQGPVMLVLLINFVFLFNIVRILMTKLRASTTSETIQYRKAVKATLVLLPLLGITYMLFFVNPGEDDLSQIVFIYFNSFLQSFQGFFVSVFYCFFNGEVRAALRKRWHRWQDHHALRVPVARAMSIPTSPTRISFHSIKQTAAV

[3] = target: T2, Corticotropin-releasing factor receptor 1 (Mus musculus) (UniProt P35347); assay: In vitro agonistic activity against mouse corticotropin releasing factor 1 receptor; type: functional
T2 sequence (whole entry): T1 sequence (P35347 whole entry)

[4] = target: Corticotropin-releasing factor receptor 2 (Mus musculus) (UniProt Q60748); assay: In vitro agonistic activity against mouse corticotropin releasing factor 2 receptor; type: functional
Corticotropin-releasing factor receptor 2 (Mus musculus), sequence (Q60748 whole entry): as above

[5] = species on record: Mus musculus; assay: Selectivity ratio of EC50s for mouse corticotropin releasing factor receptors 1 and 2

Structure (SMILES)	EC50 [1] [nM]	EC50 [2] [nM]	Emax [3] [%]	Emax [4] [%]	Selectivity [5]
CC[C@H](C)[C@H](NC(=O)[C@@H](NC(=O)[C@H](CC(=O)O)NC(=O)[C@H](CC(C)C)NC(=O)[C@H](CC(C)C)NC(=O)[C@H](CC(C)C)NC(=O)[C@H](CCCN=C(N)N)NC(=O)[C@H](CC(N)=O)NC(=O)[C@H](CC(N)=O)NC(=O)[C@H](C)NC(=O)[C@H](C)NC(=O)[C@H](CCC(N)=O)NC(=O)[C@H](CCC(N)=O)NC(=O)[C@H](CCCCN)NC(=O)[C@H](CCC(=O)O)NC(=O)[C@H](CCCCN)NC(=O)[C@H](CCC(=O)O)NC(=O)[C@H](CCC(N)=O)NC(=O)[C@H](CCCCN)NC(=O)[C@H](CCC(=O)O)NC(=O)[C@@H](NC(=O)[C@H](CCC(=O)O)NC(=O)[C@@H](NC(=O)[C@H](CCSC)NC(=O)[C@H](CCCCN)NC(=O)[C@H](CCCN=C(N)N)NC(=O)[C@H](CC(C)C)NC(=O)[C@H](CC(C)C)NC(=O)[C@H](Cc1c[nH]c2ccccc12)NC(=O)[C@@H](NC(=O)[C@@H]1CCCN1C(=O)[C@H](CC(C)C)NC(=O)[C@H](CC(=O)O)NC(=O)[C@@H](NC(=O)[C@H](CO)NC(=O)[C@@H](NC(=O)[C@@H]1CCCN1C(=O)[C@@H]1CCCN1C(=O)CNC(=O)[C@@H]1CCC(=O)N1)[C@@H](C)CC)[C@@H](C)CC)[C@@H](C)CC)[C@@H](C)CC)[C@@H](C)CC)[C@@H](C)O)C(=O)O	562	23.4	99	94	24
CC[C@H](C)[C@H](NC(=O)[C@@H](NC(=O)[C@H](CC(=O)O)NC(=O)[C@H](CC(C)C)NC(=O)[C@H](CC(C)C)NC(=O)[C@H](CC(C)C)NC(=O)[C@H](CCCN=C(N)N)NC(=O)[C@H](CC(N)=O)NC(=O)[C@H](CC(N)=O)NC(=O)[C@H](C)NC(=O)[C@H](C)NC(=O)[C@H](CCC(N)=O)NC(=O)[C@H](CCC(N)=O)NC(=O)[C@H](CCCCN)NC(=O)[C@H](CCC(=O)O)NC(=O)[C@H](CCCCN)NC(=O)[C@H](CCC(=O)O)NC(=O)[C@H](CCC(N)=O)NC(=O)[C@H](CCCCN)NC(=O)[C@H](CCC(=O)O)NC(=O)[C@@H](NC(=O)[C@H](CCC(=O)O)NC(=O)[C@@H](NC(=O)[C@H](CCSC)NC(=O)[C@H](CCCCN)NC(=O)[C@H](CCCN=C(N)N)NC(=O)[C@H](CC(C)C)NC(=O)[C@H](CC(C)C)NC(=O)[C@H](Cc1ccc(O)cc1)NC(=O)[C@H](CC(N)=O)NC(=O)[C@@H]1CCCN1C(=O)[C@H](CC(C)C)NC(=O)[C@H](CC(=O)O)NC(=O)[C@@H](NC(=O)[C@H](CO)NC(=O)[C@@H](NC(=O)[C@@H]1CCCN1C(=O)[C@@H]1CCCN1C(=O)CNC(=O)[C@@H]1CCC(=O)N1)[C@@H](C)CC)[C@@H](C)CC)[C@@H](C)CC)[C@@H](C)CC)[C@@H](C)O)C(=O)O	220	21.6	100	93	10

Further compounds by falling EC50 [1], results first:

EC50 [1] [nM]	EC50 [2] [nM]	Emax [3] [%]	Emax [4] [%]	Selectivity [5]	Structure (SMILES)
606	20.2	95	98	30	CC[C@H](C)[C@H](NC(=O)[C@@H](NC(=O)[C@H](CC(=O)O)NC(=O)[C@H](CC(C)C)NC(=O)[C@H](CC(C)C)NC(=O)[C@H](CC(C)C)NC(=O)[C@H](CCCN=C(N)N)NC(=O)[C@H](CC(N)=O)NC(=O)[C@H](CC(N)=O)NC(=O)[C@H](C)NC(=O)[C@H](C)NC(=O)[C@H](CCC(N)=O)NC(=O)[C@H](CCC(N)=O)NC(=O)[C@H](CCCCN)NC(=O)[C@H](CCC(=O)O)NC(=O)[C@H](CCCCN)NC(=O)[C@H](CCC(=O)O)NC(=O)[C@H](CCC(N)=O)NC(=O)[C@H](CCCCN)NC(=O)[C@H](CCC(=O)O)NC(=O)[C@@H](NC(=O)[C@H](CCC(=O)O)NC(=O)[C@@H](NC(=O)[C@H](CCSC)NC(=O)[C@H](CCCCN)NC(=O)[C@H](CCCN=C(N)N)NC(=O)[C@H](CC(C)C)NC(=O)[C@H](CC(C)C)NC(=O)[C@H](Cc1ccc(O)cc1)NC(=O)[C@H](C)NC(=O)[C@@H]1CCCN1C(=O)[C@H](CC(C)C)NC(=O)[C@H](CC(=O)O)NC(=O)[C@@H](NC(=O)[C@H](CO)NC(=O)[C@@H](NC(=O)[C@@H]1CCCN1C(=O)[C@@H]1CCCN1C(=O)CNC(=O)[C@@H]1CCC(=O)N1)[C@@H](C)CC)[C@@H](C)CC)[C@@H](C)CC)[C@@H](C)CC)[C@@H](C)O)C(=O)O
187	4	100	100	47	CC[C@H](C)[C@H](NC(=O)[C@@H](NC(=O)[C@H](CC(=O)O)NC(=O)[C@H](CC(C)C)NC(=O)[C@H](CC(C)C)NC(=O)[C@H](CC(C)C)NC(=O)[C@H](CCCN=C(N)N)NC(=O)[C@H](CC(N)=O)NC(=O)[C@H](CC(N)=O)NC(=O)[C@H](C)NC(=O)[C@H](C)NC(=O)[C@H](CCC(N)=O)NC(=O)[C@H](CCC(N)=O)NC(=O)[C@H](CCCCN)NC(=O)[C@H](CCC(=O)O)NC(=O)[C@H](CCCCN)NC(=O)[C@H](CCC(=O)O)NC(=O)[C@H](CCC(N)=O)NC(=O)[C@H](CCCCN)NC(=O)[C@H](CCC(=O)O)NC(=O)[C@@H](NC(=O)[C@H](CCC(=O)O)NC(=O)[C@@H](NC(=O)[C@H](CCSC)NC(=O)[C@H](CCCCN)NC(=O)[C@H](CCCN=C(N)N)NC(=O)[C@H](CC(C)C)NC(=O)[C@H](CC(C)C)NC(=O)[C@H](Cc1c[nH]c2ccccc12)NC(=O)[C@H](Cc1ccc(O)cc1)NC(=O)[C@@H]1CCCN1C(=O)[C@H](CC(C)C)NC(=O)[C@H](CC(=O)O)NC(=O)[C@@H](NC(=O)[C@H](CO)NC(=O)[C@@H](NC(=O)[C@@H]1CCCN1C(=O)[C@@H]1CCCN1C(=O)CNC(=O)[C@@H]1CCC(=O)N1)[C@@H](C)CC)[C@@H](C)CC)[C@@H](C)CC)[C@@H](C)CC)[C@@H](C)O)C(=O)O
106	5	94	96	21	CC[C@H](C)[C@H](NC(=O)[C@@H](NC(=O)[C@H](CC(=O)O)NC(=O)[C@H](CC(C)C)NC(=O)[C@H](CC(C)C)NC(=O)[C@H](CC(C)C)NC(=O)[C@H](CCCN=C(N)N)NC(=O)[C@H](CC(N)=O)NC(=O)[C@H](CC(N)=O)NC(=O)[C@H](C)NC(=O)[C@H](C)NC(=O)[C@H](CCC(N)=O)NC(=O)[C@H](CCC(N)=O)NC(=O)[C@H](CCCCN)NC(=O)[C@H](CCC(=O)O)NC(=O)[C@H](CCCCN)NC(=O)[C@H](CCC(=O)O)NC(=O)[C@H](CCC(N)=O)NC(=O)[C@H](CCCCN)NC(=O)[C@H](CCC(=O)O)NC(=O)[C@@H](NC(=O)[C@H](CCC(=O)O)NC(=O)[C@@H](NC(=O)[C@H](CCSC)NC(=O)[C@H](CCCCN)NC(=O)[C@H](CCCN=C(N)N)NC(=O)[C@H](CC(C)C)NC(=O)[C@H](CC(C)C)NC(=O)[C@@H](NC(=O)[C@H](CC(C)C)NC(=O)[C@@H]1CCCN1C(=O)[C@H](CC(C)C)NC(=O)[C@H](CC(=O)O)NC(=O)[C@@H](NC(=O)[C@H](CO)NC(=O)[C@@H](NC(=O)[C@@H]1CCCN1C(=O)[C@@H]1CCCN1C(=O)CNC(=O)[C@@H]1CCC(=O)N1)[C@@H](C)CC)[C@@H](C)CC)[C@@H](C)CC)[C@@H](C)CC)[C@@H](C)CC)[C@@H](C)O)C(=O)O
